Consider 2 compounds from patent publication US9295706B2, “Phytotherapic pharmaceutical combination of Lippia salviifolia and Lippia sidoides, phytotherapic pharmaceutical composition, process for preparing a phytotherapic pharmaceutical composition and veterinary uses thereof” (priority 2010, dated 2016).

Common to all, as to format: cell-based
In assay [1] the test system is Candida albicans. In words: Minimum Inhibitory Concentration (MIC) against Candida albicans. The following applies: Candida albicans strain.
For assay [2], the system named is Escherichia coli. In words: Minimum Inhibitory Concentration (MIC) against Escherichia coli. As to conditions: Escherichia coli strain.
For assay [3], the system named is Pseudomonas aeruginosa. In words: Minimum Inhibitory Concentration (MIC) against Pseudomonas aeruginosa. The following applies: Pseudomonas aeruginosa strain.
In assay [4] the test system is Staphylococcus epidermidis. In words: Minimum Inhibitory Concentration (MIC) against Staphylococcus epidermidis. As to conditions: Staphylococcus epidermidis strain.
Assay [5] deals with Staphylococcus aureus. In words: Minimum Inhibitory Concentration (MIC) against Staphylococcus aureus. As to conditions: Staphylococcus aureus strain.

Turning to `C[C@@H]1[C@H](O)[C@@H](C)/C=C/C=C/C=C/C=C/C=C/C=C/C=C/[C@H](O[C@@H]2O[C@H](C)[C@@H](O)[C@H](N)[C@@H]2O)C[C@@H]2O[C@](O)(C[C@@H](O)C[C@@H](O)[C@H](O)CC[C@@H](O)C[C@@H](O)CC(=O)O[C@H]1C)C[C@H](O)[C@H]2C(=O)O` [Amphotericin B], the “MIC Values” in assay [1] is listed as 3.15 (b) μg/ml.

For the compound Gemtamicin, the “MIC Values” is given as 75 (a) μg/ml in assay [2], 37 (a) μg/ml in assay [3], 150 (a) μg/ml in assay [4] and 75 (a) μg/ml in assay [5].
